US20260070895A1, “CRYSTALLINE FORMS” (QUIMATRYX, S.L., priority 2022, published 2026)
Entries after “also recorded” stand apart in the source; their conditions may differ.

Experiment: Photostability at solid state (chemical purity by HPLC after illumination)
Type: physicochemical
Conditions: for HPLC peak area, QTX125 RRT 1.00 / HPLC peak area, RRT 1.04 / degradation (in words) / HPLC peak area, RRT 1.12 / colour change of the solid material / HPLC peak area, RRT 1.08 / HPLC peak area, RRT 1.11 / HPLC peak area, RRT 1.20: solid-state; for degradation (in words): up to 171 hours
Protocol: The method for determining purity by HPLC—used throughout these examples—used the following parameters:
The photostability of novel crystalline forms of QTX125 was assessed at solid state and in solution. Where ‘forced illumination’ conditions were used, samples were illuminated at 12 Klux/hour and 2.8 UV W/m^2/hour. Samples were stored at a temperature of 30° C. Following incubation, the chemical purity of QTX125 was measured by HPLC.
The following index is provided to aid navigation of the data presented in Tables 3.1.1 to 3.3.6: • 3.1.x—Assessment of the photostability of QTX125 Form 2. • 3.2.x—Assessment of the photostability of amorphous QTX125. • 3.3.x—Assessment of the photostability of the QTX125 1:2 L-Lysine adduct. • 3.x.1—Samples (at solid state) stored in unsealed clear glass bottles, subject to forced illumination. • 3.x.2—Samples (at solid state) sealed under nitrogen in clear glass bottles, subject to forced illumination. • 3.x.3—Samples (at solid state) sealed under nitrogen in amber glass bottles, illuminated under ambient laboratory conditions • 3.x.4—Samples (at solid state) sealed under nitrogen in amber glass bottles, subject to forced illumination. • 3.x.5—Samples (in solution) sealed under nitrogen in amber glass bottles, illuminated under ambient laboratory conditions. • 3.x.6—Samples (in solution) sealed under nitrogen in amber glass bottles, subject to forced illumination.

[1] = sealed under nitrogen in amber glass bottles, ambient laboratory conditions, 0 hours
[2] = sealed under nitrogen in amber glass bottles, ambient laboratory conditions, 3 hours
[3] = sealed under nitrogen in amber glass bottles, ambient laboratory conditions, 26 hours
[4] = sealed under nitrogen in amber glass bottles, ambient laboratory conditions, 74 hours
[5] = sealed under nitrogen in amber glass bottles, ambient laboratory conditions, 171 hours
[6] = sealed under nitrogen in amber glass bottles, ambient laboratory conditions, 171 hours, listed as Form 2
[7] = sealed under nitrogen in amber glass bottles, forced illumination, 0 hours
[8] = sealed under nitrogen in amber glass bottles, forced illumination, 3 hours
[9] = sealed under nitrogen in amber glass bottles, forced illumination, 26 hours
[10] = sealed under nitrogen in amber glass bottles, forced illumination, 74 hours
[11] = sealed under nitrogen in amber glass bottles, forced illumination, 171 hours
[12] = sealed under nitrogen in amber glass bottles, forced illumination, 171 hours, listed as Form 2
[13] = sealed under nitrogen in clear glass bottles, forced illumination
[14] = sealed under nitrogen in clear glass bottles, forced illumination, 0 hours
[15] = sealed under nitrogen in clear glass bottles, forced illumination, 3 hours
[16] = sealed under nitrogen in clear glass bottles, forced illumination, 26 hours
[17] = sealed under nitrogen in clear glass bottles, forced illumination, 74 hours
[18] = sealed under nitrogen in clear glass bottles, forced illumination, 171 hours
[19] = unsealed clear glass bottles, forced illumination, 0 hours
[20] = unsealed clear glass bottles, forced illumination, 3 hours
[21] = unsealed clear glass bottles, forced illumination, 26 hours
[22] = unsealed clear glass bottles, forced illumination, 74 hours

Question: Which “photostability as compared to amorphous QTX125” value (at solid state) does the source give for O=C(NO)c1ccc(CNC(=O)c2[nH]c(-c3ccc(O)cc3)cc2-c2ccoc2)cc1 [QTX125 Form 2, 3-(3-Furyl)-N-{4-[(hydroxyamino)carbonyl]benzyl}-5-(4-hydroxyphenyl)-1H-pyrrole-2-carboxamide] here?
Answer: Its value is “enhanced photostability; also recorded: improved photostability”.

Question: What about the “HPLC peak area, QTX125 RRT 1.00” value [1] of the same compound?
Answer: Its value is 98.21%.

Question: What about the “HPLC peak area, RRT 1.04” value [1] of the same compound?
Answer: Its value is 0.98%.

Question: What about the “HPLC peak area, QTX125 RRT 1.00” value [2] of the same compound?
Answer: Its value is 97.35%.

Question: And the “HPLC peak area, RRT 1.04” value [2]?
Answer: Its value is 1.06%.

Question: What about the “HPLC peak area, QTX125 RRT 1.00” value [3] of the same compound?
Answer: The value was 98.11%.

Question: What about the “HPLC peak area, RRT 1.04” value [3] of the same compound?
Answer: Its value is 1.07%.

Question: What about the “HPLC peak area, QTX125 RRT 1.00” value [4] of the same compound?
Answer: The value was 98.83%.

Question: And the “HPLC peak area, RRT 1.04” value [4]?
Answer: Its value is 0.55%.

Question: What about the “HPLC peak area, QTX125 RRT 1.00” value [5] of the same compound?
Answer: The value was 98.12%.

Question: What about the “HPLC peak area, RRT 1.04” value [5] of the same compound?
Answer: Its value is 1.21%.

Question: What about the “HPLC peak area, QTX125 RRT 1.00” value [6] of the same compound?
Answer: Its value is 98.12%.

Question: And the “HPLC peak area, RRT 1.04” value [6]?
Answer: Its value is 1.21%.

Question: What about the “degradation (in words)” value (sealed under nitrogen in amber glass bottles, ambient laboratory conditions) of the same compound?
Answer: The value was “little evidence of degradation”.

Question: And the “HPLC peak area, QTX125 RRT 1.00” value [7]?
Answer: Its value is 98.21%.

Question: What about the “HPLC peak area, RRT 1.04” value [7] of the same compound?
Answer: Its value is 0.98%.

Question: What about the “HPLC peak area, QTX125 RRT 1.00” value [8] of the same compound?
Answer: Its value is 98.23%.

Question: What about the “HPLC peak area, RRT 1.04” value [8] of the same compound?
Answer: The value was 0.99%.

Question: And the “HPLC peak area, QTX125 RRT 1.00” value [9]?
Answer: Its value is 97.82%.

Question: And the “HPLC peak area, RRT 1.04” value [9]?
Answer: Its value is 1.22%.

Question: What about the “HPLC peak area, QTX125 RRT 1.00” value [10] of the same compound?
Answer: The value was 97.70%.

Question: And the “HPLC peak area, RRT 1.04” value [10]?
Answer: Its value is 1.06%.

Question: And the “HPLC peak area, QTX125 RRT 1.00” value [11]?
Answer: The value was 95.40%.

Question: What about the “HPLC peak area, RRT 1.04” value [11] of the same compound?
Answer: The value was 2.55%.

Question: And the “HPLC peak area, RRT 1.12” value [11]?
Answer: The value was 0.28%.

Question: And the “HPLC peak area, QTX125 RRT 1.00” value [12]?
Answer: The value was 95.40%.

Question: And the “HPLC peak area, RRT 1.04” value [12]?
Answer: The value was 2.55%.

Question: What about the “HPLC peak area, RRT 1.12” value [12] of the same compound?
Answer: The value was 0.28%.

Question: And the “degradation (in words)” value (sealed under nitrogen in amber glass bottles, forced illumination)?
Answer: The value was “degrade slightly”.

Question: What about the “colour change of the solid material” value [13] of the same compound?
Answer: The value was “change in colour from off white to dark green”.

Question: And the “HPLC peak area, QTX125 RRT 1.00” value [14]?
Answer: The value was 98.21%.

Question: And the “HPLC peak area, RRT 1.04” value [14]?
Answer: Its value is 0.98%.

Question: And the “HPLC peak area, QTX125 RRT 1.00” value [15]?
Answer: The value was 97.78%.

Question: And the “HPLC peak area, RRT 1.04” value [15]?
Answer: Its value is 1.29%.

Question: What about the “HPLC peak area, QTX125 RRT 1.00” value [16] of the same compound?
Answer: Its value is 96.16%.

Question: What about the “HPLC peak area, RRT 1.04” value [16] of the same compound?
Answer: The value was 2.16%.

Question: And the “HPLC peak area, QTX125 RRT 1.00” value [17]?
Answer: The value was 84.98%.

Question: And the “HPLC peak area, RRT 1.04” value [17]?
Answer: The value was 5.99%.

Question: And the “HPLC peak area, RRT 1.08” value [17]?
Answer: The value was 1.24%.

Question: What about the “HPLC peak area, RRT 1.11” value [17] of the same compound?
Answer: The value was 0.52%.

Question: What about the “HPLC peak area, RRT 1.20” value [17] of the same compound?
Answer: The value was 0.66%.

Question: What about the “HPLC peak area, QTX125 RRT 1.00” value [18] of the same compound?
Answer: The value was 82.33%.

Question: What about the “HPLC peak area, RRT 1.04” value [18] of the same compound?
Answer: The value was 9.95%.

Question: And the “HPLC peak area, RRT 1.08” value [18]?
Answer: Its value is 0.41%.

Question: What about the “HPLC peak area, RRT 1.11” value [18] of the same compound?
Answer: The value was 0.86%.

Question: What about the “HPLC peak area, RRT 1.20” value [18] of the same compound?
Answer: Its value is 0.22%.

Question: What about the “degradation (in words)” value [13] of the same compound?
Answer: Its value is “degrade to two principal components”.

Question: And the “colour change of the solid material” value (unsealed clear glass bottles, forced illumination)?
Answer: The value was “change in colour from off white to dark green”.

Question: What about the “HPLC peak area, QTX125 RRT 1.00” value [19] of the same compound?
Answer: Its value is 98.21%.

Question: What about the “HPLC peak area, RRT 1.04” value [19] of the same compound?
Answer: The value was 0.98%.

Question: And the “HPLC peak area, QTX125 RRT 1.00” value [20]?
Answer: Its value is 97.68%.

Question: What about the “HPLC peak area, RRT 1.04” value [20] of the same compound?
Answer: The value was 1.38%.

Question: What about the “HPLC peak area, QTX125 RRT 1.00” value [21] of the same compound?
Answer: Its value is 95.59%.

Question: And the “HPLC peak area, RRT 1.04” value [21]?
Answer: Its value is 2.38%.

Question: And the “HPLC peak area, QTX125 RRT 1.00” value [22]?
Answer: The value was 90.53%.

Question: What about the “HPLC peak area, RRT 1.04” value [22] of the same compound?
Answer: The value was 4.90%.

Question: What about the “HPLC peak area, QTX125 RRT 1.00” value (unsealed clear glass bottles, forced illumination, 171 hours) of the same compound?
Answer: The value was 83.78%.
